Assay results: patent US20230274811A1, “METHODS OF MAKING PROSTATE CANCER TREATMENT DECISIONS” (Progenics Pharmaceuticals, Inc., priority 2020, published 2023)

System: biochemically recurrent prostate cancer
Experiment: CONDOR: 18F-DCFPyL PET/CT correct localization rate, detection rate and PPV vs composite standard of truth
Type: in vivo, men
Source text: 1. Correct Localization Rate (CLR), defined as percentage of subjects with a one-to-one correspondence between localization of at least one lesion identified on ^18F-DCFPyL PET/CT imaging and the composite truth standard, defined as either evaluable histopathology, informative correlative imaging, or PSA response after radiation therapy.
Men ≥18 years of age with a rising PSA after definitive PCa therapy and negative or equivocal imaging were enrolled. […] The primary endpoint of this study was the correct localization rate (CLR). CLR is defined as the percentage of patients with a one-to-one correspondence between localization of at least one lesion identified by ^18F-DCFPyL PET/CT and a composite standard of truth (SOT). SOT was determined by two central readers and included either histopathology or another standard imaging modality (i.e., fluciclovine-PET/CT, CT/MRI, bone scan) or alternatively, by a post-treatment PSA change for irradiated lesions.
Methods: Men ≥18 years—with rising PSA after definitive therapy and negative or equivocal standard of care imaging (e.g., CT/MRI, bone scintigraphy) were enrolled. A single 9 mCi (333 MBq)±20% dose of PyL was injected, followed by PET/CT 1-2 hours later. Primary endpoint was correct localization rate (CLR), defined as percentage of pts with a 1:1 correspondence between at least one lesion identified by PyL-PET/CT and the composite standard of truth: pathology, correlative imaging, or PSA response. […] The secondary endpoint, impact of PyL-PET/CT on clinical management of pts was based on the treating physician's documented clinical plans before and after PyL-PET/CT.
Men with a PSA ≥0.2 ng/mL after surgery or ≥2 ng/mL above the nadir after radiation therapy were eligible for enrollment. The primary endpoint was the correct localization rate (CLR) defined as positive predictive value with an additional requirement of anatomical lesion colocalization between ^18F-DCFPyL-PET/CT and a composite standard of truth (SOT). The SOT consisted of, in descending priority: 1) histopathology, 2) correlative imaging findings determined by two central readers, or 3) post-radiation PSA response. […] The impact of ^18F-DCFPyL-PET/CT as defined by change in management intent, and safety were evaluated as secondary endpoints.
Patients voided prior to imaging, and PET and non-contrast CT images were acquired from the mid-thigh through the skull vertex. All ^18F-DCFPyL-PET/CT scans were submitted to the central imaging core laboratory for assessment. Patients with positive ^18F-DCFPyL-PET/CT scans based on local interpretation were scheduled for post-^18F-DCFPyL-PET/CT follow-up to verify suspected lesion(s) based on a composite standard of truth (SOT). (FIG. 16)
Because of the expected absence of an amenable lesion for histologic verification in all patients, a composite SOT was employed based on assessment performed or initiated within 60 days following ^18F-DCFPyL-PET/CT. These reference standards were defined (in descending priority) as (1) evaluable histopathology results from prostatectomy, salvage pelvic lymph node dissection or biopsy; (2) imaging findings using ^18F-fluciclovine or ^11C-choline PET, or focused MRI or CT; or (3) if neither of the above was available or informative, confirmed PSA response up to 9 months post-radiation initiation (with no concomitant ADT) of all PET-positive foci. PSA response was defined as PSA decline by ≥50% from baseline that was confirmed on repeat measurement within 4 weeks, based on central laboratory results.
A central imaging core laboratory was employed to independently manage image handling, reader training, reader sessions and data collection. […] The readers had no access to any clinical information, including PSA values or other imaging available for a patient. […]

[1] = SOT Correlative imaging n=100, Reader 1
[2] = SOT Correlative imaging n=100, Reader 2

O=C(O)CC[C@H](NC(=O)N[C@@H](CCCCNC(=O)c1ccc([18F])nc1)C(=O)O)C(=O)O [18F-DCFPyL, 2-(3-{1-carboxy-5-[(6-[^18F]fluoro-pyridine-3-carbonyl)-amino]-pentyl}ureido)-pentanedioic acid]
pts with PSMA-avid lesion(s), local radiology assessment (142/208): 69.3% | PPV by anatomic region (Extra-pelvic, Reader 1 (CONDOR Reader 4 in Table 17)): 33 (67.3) % | PPV by anatomic region (Extra-pelvic, Reader 1 (CONDOR Reader 4 in Table 17), listed as PyLARIFY): 67% | PPV by anatomic region (Extra-pelvic, Reader 2 (CONDOR Reader 5 in Table 17)): 31 (67.4) % | PPV by anatomic region (Extra-pelvic, Reader 2 (CONDOR Reader 5 in Table 17), listed as PyLARIFY): 67% | PPV by anatomic region (Extra-pelvic, Reader 3 (CONDOR Reader 6 in Table 17)): 30 (69.8) % | PPV by anatomic region (Extra-pelvic, Reader 3 (CONDOR Reader 6 in Table 17), listed as PyLARIFY): 70% | CLR by baseline PSA (PSA 0.5-<1.0 ng/mL, Reader 1): 12 (75.0) % | Detection rate by baseline PSA (PSA 0.5-<1.0 ng/mL, Reader 1): 21 (56.8) % | CLR by baseline PSA (PSA 0.5-<1.0 ng/mL, Reader 2): 10 (76.9) % | Detection rate by baseline PSA (PSA 0.5-<1.0 ng/mL, Reader 2): 45.9% | CLR by baseline PSA (PSA 0.5-<1.0 ng/mL, Reader 3): 11 (73.3) % | Detection rate by baseline PSA (PSA 0.5-<1.0 ng/mL, Reader 3): 19 (51.4) % | CLR by baseline PSA (PSA 1.0-<2.0 ng/mL, Reader 1): 17 (85.0) % | Detection rate by baseline PSA (PSA 1.0-<2.0 ng/mL, Reader 1): 24 (72.7) % | CLR by baseline PSA (PSA 1.0-<2.0 ng/mL, Reader 2): 14 (77.8) % | Detection rate by baseline PSA (PSA 1.0-<2.0 ng/mL, Reader 2): 22 (66.7) % | CLR by baseline PSA (PSA 1.0-<2.0 ng/mL, Reader 3): 15 (83.3) % | Detection rate by baseline PSA (PSA 1.0-<2.0 ng/mL, Reader 3): 19 (57.6) % | CLR by baseline PSA (PSA 2.0 < 5.0 ng/mL, Reader 1): 21 (91.3) % | Detection rate by baseline PSA (PSA 2.0 < 5.0 ng/mL, Reader 1): 28 (84.8) % | CLR by baseline PSA (PSA 2.0 < 5.0 ng/mL, Reader 2): 24 (92.3) % | Detection rate by baseline PSA (PSA 2.0 < 5.0 ng/mL, Reader 2): 29 (87.9) % | CLR by baseline PSA (PSA 2.0 < 5.0 ng/mL, Reader 3): 20 (90.9) % | Detection rate by baseline PSA (PSA 2.0 < 5.0 ng/mL, Reader 3): 27 (81.8) % | CLR by baseline PSA (PSA <0.5 ng/mL, Reader 1): 11 (73.3) % | Detection rate by baseline PSA (PSA <0.5 ng/mL, Reader 1): 29 (42.0) % | CLR by baseline PSA (PSA <0.5 ng/mL, Reader 2): 76.9% | Detection rate by baseline PSA (PSA <0.5 ng/mL, Reader 2): 23 (33.3) % | CLR by baseline PSA (PSA <0.5 ng/mL, Reader 3): 11 (73.3) % | Detection rate by baseline PSA (PSA <0.5 ng/mL, Reader 3): 25 (36.2) % | CLR by baseline PSA (PSA ≥5 ng/mL, Reader 1): 27 (96.4) % | Detection rate by baseline PSA (PSA ≥5 ng/mL, Reader 1): 29 (96.7) % | CLR by baseline PSA (PSA ≥5 ng/mL, Reader 2): 28 (96.6) % | Detection rate by baseline PSA (PSA ≥5 ng/mL, Reader 2): 29 (96.7) % | CLR by baseline PSA (PSA ≥5 ng/mL, Reader 3): 26 (96.3) % | Detection rate by baseline PSA (PSA ≥5 ng/mL, Reader 3): 27 (90.0) % | PPV by anatomic region (Pelvic, Reader 1 (CONDOR Reader 4 in Table 17)): 41 (67.2) % | PPV by anatomic region (Pelvic, Reader 1 (CONDOR Reader 4 in Table 17), listed as PyLARIFY): 67% | PPV by anatomic region (Pelvic, Reader 2 (CONDOR Reader 5 in Table 17)): 40 (72.7) % | PPV by anatomic region (Pelvic, Reader 2 (CONDOR Reader 5 in Table 17), listed as PyLARIFY): 73% | PPV by anatomic region (Pelvic, Reader 3 (CONDOR Reader 6 in Table 17)): 39 (70.9) % | PPV by anatomic region (Pelvic, Reader 3 (CONDOR Reader 6 in Table 17), listed as PyLARIFY): 71% | PPV by anatomic region (Prostatic (prostate bed), Reader 1 (CONDOR Reader 4 in Table 17), listed as PyLARIFY): 80% | PPV by anatomic region (Prostatic (prostate bed), Reader 2 (CONDOR Reader 5 in Table 17)): 30 (83.3) % | PPV by anatomic region (Prostatic (prostate bed), Reader 2 (CONDOR Reader 5 in Table 17), listed as PyLARIFY): 83% | PPV by anatomic region (Prostatic (prostate bed), Reader 3 (CONDOR Reader 6 in Table 17)): 27 (75.0) % | PPV by anatomic region (Prostatic (prostate bed), Reader 3 (CONDOR Reader 6 in Table 17), listed as PyLARIFY): 75% | CLR (TP/TP + FP) (SOT CT n=6, Reader 1): (80.0%) | Negative PyL Scan (SOT CT n=6, Reader 1): (16.7%) | Positive PyL Scan (SOT CT n=6, Reader 1): (83.3%) | CLR (TP/TP + FP) (SOT CT n=6, Reader 2): (100.0%) | Negative PyL Scan (SOT CT n=6, Reader 2): (16.7%) | Positive PyL Scan (SOT CT n=6, Reader 2): (83.3%) | CLR (TP/TP + FP) (SOT CT n=6, Reader 3): (80.0%) | Negative PyL Scan (SOT CT n=6, Reader 3): (16.7%) | Positive PyL Scan (SOT CT n=6, Reader 3): (83.3%) | CLR (TP/TP + FP) [1]: (88.0%) | Negative PyL Scan [1]: (18.0%) | PPV (TP/TP + FP) [1]: (89.0%) | Positive PyL Scan [1]: (82.0%) | CLR (TP/TP + FP) [2]: (88.6%) | Negative PyL Scan [2]: (24.0%) | PPV (TP/TP + FP) [2]: (89.5%) | Positive PyL Scan [2]: (76.0%)
